The text below walks through data of patent publication US10772917B2, “Pancreatic endocrine progenitor cell therapies for the treatment of obesity and type 2 diabetes (T2D)” (THE UNIVERSITY OF BRITISH COLUMBIA, priority 2015, dated 2020).

Assay [1] relates to HFD-fed mice. The assay can be described thus: Body weight, epididymal fat pad weight and leptin in 60% fat diet mice given antidiabetic drug with or without cell transplant (Example 6). In kind it is in vivo, mouse (SCID-beige). Conditions: for circulating leptin levels: 60% fat diet, drug combined with cell transplant vs respective sham controls on the same drug, 20 weeks post-transplant. From the text:
Male SCID-beige mice (C.B-Igh-1b/GbmsTac-Prkdcscid-LystbgN7, 8-10 weeks old; Taconic™) were maintained on a 12 hr light/dark cycle throughout the study. All experiments were approved by the UBC Animal Care Committee and carried out in accordance with the Canadian Council on Animal Care guidelines.
(§1) In the second cohort, mice were placed on either the 10% fat control diet (D12450K; n=8) for the duration of the study of 60% fat diet (D12492; n=64) for 6 weeks, followed by one of the following treatment regimens for the remainder of the study (n=16 per group): (1) 60% fat diet with no drug (D12492), (2) 60% fat diet containing rosiglitazone (18 mg/kg diet or ˜3 mg/kg BW per day; Cayman Chemical™; Research Diets™ custom diet formulation D08121002), (3) 60% fat diet containing sitagliptin (4 g/kg diet or ˜750 mg/kg BW per day; sitagliptin phosphate monohydrate, BioVision™; Research Diets™ custom diet formulation D08062502R), or (4) 60% fat diet (D12492) and metformin (1,1-dimethylbiguanide hydrochloride) in drinking water (1.25 mg/ml or ˜250 mg/kg BW per day).
The procedure used for transplantation of macro-encapsulated pancreatic progenitor cells was as follows. Similar transplantation of macro-encapsulated pancreatic endocrine precursor cells or insulin-producing cells was described in Rezania et al. 2014, Pagliucca et al. 2014 and Agulnick A. D. et al. 2015. All mice were anaesthetized with inhalable isoflurane and transplant recipients received ˜5×10^6 hESC-derived pancreatic progenitor cells subcutaneously (s.c.) within a 20 1 TheraCyte™ macroencapsulation device (TheraCyte Inc.™, Laguna Hills, Calif.) on the right flank, as previously described (Bruin et al., 2013). Sham mice received the same surgical procedure, but no macroencapsulation device was implanted. In the first cohort, mice were randomly assigned to receive either a cell transplant (Tx, n=7 per diet) or sham surgery (sham, n=4 per diet) after 7 weeks of LFD or HFD feeding. […]
All metabolic analyses were performed in conscious, restrained mice and blood samples were collected via the saphenous vein. BW and blood glucose levels were assessed regularly throughout each study following a 4-hr morning fast. […]
Glucose tolerance tests (GTTs) were performed following a 6-hour morning fast and administration of glucose by oral gavage or intraperitoneal (i.p.) injection (2 glucose/kg BW, 30% solution; Vétoquinol™, Lavaltrie, QC). Glucose-stimulated human C-peptide secretion from engrafted cells was assessed following an overnight fast and an i.p. injection of glucose (2 g/kg). […] Blood glucose levels were measured using a handheld glucometer (Lifescan™; Burnaby, Canada). […]

In assay [2] the test system is HFD-fed mice. The assay can be described thus: Fasting blood glucose and oral glucose tolerance test in 60% fat diet mice given antidiabetic drug with or without cell transplant (Example 6). Format: in vivo, mouse (SCID-beige). Conditions: for glucose tolerance (oral glucose tolerance test): HFD-fed mice, cell therapy combined with the drug. Here is the method: as §1
(§2) The procedure used for transplantation of macro-encapsulated pancreatic progenitor cells was as follows. Similar transplantation of macro-encapsulated pancreatic endocrine precursor cells or insulin-producing cells was described in Rezania et al. 2014, Pagliucca et al. 2014 and Agulnick A. D. et al. 2015. All mice were anaesthetized with inhalable isoflurane and transplant recipients received ˜5×10^6 hESC-derived pancreatic progenitor cells subcutaneously (s.c.) within a 20 1 TheraCyte™ macroencapsulation device (TheraCyte Inc.™, Laguna Hills, Calif.) on the right flank, as previously described (Bruin et al., 2013). Sham mice received the same surgical procedure, but no macroencapsulation device was implanted. In the first cohort, mice were randomly assigned to receive either a cell transplant (Tx, n=7 per diet) or sham surgery (sham, n=4 per diet) after 7 weeks of LFD or HFD feeding. In the second cohort, HFD-fed mice (+/−drug treatment) received either a transplant (n=8 per group) or sham surgery (n=8 per group) 1 week after administration of the antidiabetic drugs. LFD controls all received sham surgery.
All metabolic analyses were performed in conscious, restrained mice and blood samples were collected via the saphenous vein. BW and blood glucose levels were assessed regularly throughout each study following a 4-hr morning fast. For all other metabolic tests, blood was collected after fasting (time 0) and at the indicated time points following administration of various secretagogues.
(§3) Glucose tolerance tests (GTTs) were performed following a 6-hour morning fast and administration of glucose by oral gavage or intraperitoneal (i.p.) injection (2 glucose/kg BW, 30% solution; Vétoquinol™, Lavaltrie, QC). Glucose-stimulated human C-peptide secretion from engrafted cells was assessed following an overnight fast and an i.p. injection of glucose (2 g/kg). […] Blood glucose levels were measured using a handheld glucometer (Lifescan™; Burnaby, Canada). Mouse hormone and lipid profiles were assessed in plasma using the following kits: leptin (Mouse Leptin ELISA, Crystal ChemInc.™, Downers Grove, Ill.), insulin (Ultrasensitive Mouse Insulin ELISA, Alpco Diagnostics™, Salem, N.H.), C-peptide (Mouse C-peptide ELISA, Alpco Diagnostics™), triglycerides (Serum Triglyceride kit, Sigma-Aldrich™), free fatty acids (NEFA-HR(2) kit, Wako Chemical™, Richmond, Va.) and cholesterol (Cholesterol E™ kit, Wako Chemical™). Hormone secretion from engrafted hESC-derived cells was assessed by measuring plasma human C-peptide (C-peptide ELISA, 80-CPTHU-E01.1; Alpco Diagnostics™) and human insulin and glucagon levels (K15160C-2; Meso Scale Discovery™, Gaithersburg, Md.). […]

Assay [3] relates to HFD-fed mice. The assay can be described thus: Mouse and human C-peptide after intraperitoneal glucose challenge (Example 6). Format: in vivo, mouse (SCID-beige). Conditions: drug plus cell transplant vs respective sham controls; for reduction of fasting mouse C-peptide levels: 4 weeks post-transplant; for fasting mouse C-peptide levels: 16 weeks post-transplant.
Text: as §2
as §3, with “g/kg). Insulin tolerance tests (ITTs) were performed following a 4-hour morning fast and administration of human synthetic insulin (0.7 IU/kg body weight; Novolin Ge™ Toronto, Novo Nordisk™, Mississaugua, Canada).” for “g/kg).”, “Md.). Hemoglobin A1c (HbA1c) levels were measured with a Siemens DCA 200 Vantage Analyzer™ (Siemens Healthcare Diagnostics™, Tarrytown, N.Y.) from whole blood collected from the saphenous vein with EDTA as an anticoagulant.” for “Md.).”

In a further assay the test system is pancreatic regeneration. Conditions: ductal ligation model; cited from earlier work.
For assay [4] the following is noted: under the conditions tested; cited from earlier work.
Where [5] appears, read: 12 weeks post-transplant, drug with the cell therapy.

Consider `CN(C)C(=N)NC(=N)N.Cl` [metformin, 1,1-dimethylbiguanide hydrochloride], for which, in the assay on HFD-fed mice [1], the circulating leptin levels entry is recorded as “significantly reduced”. The “glucose tolerance (oral glucose tolerance test)” value in the assay on HFD-fed mice [2] (12 weeks post-transplant) is reported as “significantly improved”. In the assay with HFD-fed mice [3], the “reduction of fasting mouse C-peptide levels” value is on record as “not yet evident” and the “fasting mouse C-peptide levels” value is reported as “significantly reduced”.

For `CN(CCOc1ccc(CC2SC(=O)NC2=O)cc1)c1ccccn1` (stereo not shown) [rosiglitazone], in the assay on HFD-fed mice [1], the circulating leptin levels result was “no effect”.

On to `N[C@@H](CC(=O)N1CCn2c(nnc2C(F)(F)F)C1)Cc1cc(F)c(F)cc1F` [sitagliptin, sitagliptin phosphate monohydrate], for which the circulating leptin levels result with HFD-fed mice [1] is reported as “significantly reduced”. Moreover, the weight loss result in the assay on HFD-fed mice [1] (cells transplanted in combination with the drug, compared with other groups) is “the most weight loss was observed”. For the same compound, the “glucose tolerance (oral glucose tolerance test)” value in the assay with HFD-fed mice [2] (12 weeks post-transplant) was “significantly improved”. Further, in the assay on HFD-fed mice [2] (setting [5]), the “glycemic control during an oral glucose challenge compared with LFD controls” value was “indistinguishable” and the “peak glucose level at 15 minutes post-gavage compared with LFD controls” value is “marginally higher”. In the assay on HFD-fed mice [2] (drug on its own, without cell transplant), the glucose tolerance result was “mild reduction in glucose tolerance”. Further, in the assay with HFD-fed mice [3], the “reduction of fasting mouse C-peptide levels” value is reported as “not yet evident” and the “fasting mouse C-peptide levels” value is listed as “significantly reduced”.

On to `C=CC[C@@H]1/C=C(\C)C[C@H](C)C[C@H](OC)[C@H]2O[C@@](O)(C(=O)C(=O)N3CCCC[C@H]3C(=O)O[C@H](/C(C)=C/[C@@H]3CC[C@@H](O)[C@H](OC)C3)[C@H](C)[C@@H](O)CC1=O)[C@H](C)C[C@@H]2OC` [tacrolimus], for which the pancreatic regeneration entry in the assay with pancreatic regeneration is given as “block pancreatic regeneration”.

Take “exendin-4: anti-diabetic medicine examined earlier for short term effect (Bruin et al. 2013)”: in assay [4], the short term effect entry is “without significant effect”.

With “insulin: anti-diabetic medicine examined earlier for short term effect (Bruin et al. 2013)”, in assay [4], the short term effect result was “without significant effect”.
